{"source": "patent US20070059382A1", "about": "(Board of Regents, Univ. and Comm. College System of …, priority 2005, published 2007)", "key": {"ZR-75-1 [1]": {"system": "ZR-75-1", "test": "Cell attachment (reattachment after trypsin harvest)"}, "MCF-7 [2]": {"system": "MCF-7", "test": "Cell attachment (reattachment after trypsin harvest)"}, "MCF-7 [3]": {"system": "MCF-7", "conditions": "1 mM"}, "PC-3": {"system": "PC-3", "conditions": "cited from earlier work"}, "ZR-75-1 [4]": {"system": "ZR-75-1"}, "[5]": {"conditions": "humans, chronic (about 1 g of boric acid); cited from earlier work"}, "HeLa cells": {"system": "HeLa cells", "test": "Growth of HeLa cells (express the NaBC1 transporter)", "type": "cell-based", "conditions": "1 mM"}, "[6]": {"system": "cyclins A-E and MAPK proteins", "conditions": "cited from earlier work"}, "DU-145 cells": {"system": "DU-145 cells", "conditions": "cited from earlier work"}, "LNCaP tumor": {"system": "LNCaP tumor", "conditions": "nude mice, 1.7 and 9.0 mgB/Kg/day; cited from earlier work"}, "[7]": {"conditions": "in vivo; cited from earlier work"}, "ZR-75-1 [8]": {"system": "ZR-75-1", "test": "Detachment of growing cells (attached and floating cells)", "type": "cell-based, human", "conditions": "seven days, 0.5 to 10 mM boric acid", "source_text": "We quantified the attached and floating cells. The data is shown below in FIG. 7."}, "DU-145": {"system": "DU-145", "conditions": "cited from earlier work"}, "[9]": {"system": "non-tumorigenic prostate cell lines", "conditions": "cited from earlier work"}, "LNCaP": {"system": "LNCaP", "conditions": "cited from earlier work"}, "[10]": {"conditions": "in vivo; cited from earlier work", "remark": "listed apart in the source"}, "[11]": {"conditions": "treated three days, then boric acid removed"}}, "note": "Several values for one entry are separate records, joined by “and”; a condition that tells them apart may be missing. Equal entries are not always repeated. Entries after “also recorded” stand apart in the source; their conditions may differ. Where two headings read alike, the source gives them in different places.", "data": [{"smiles": "[Cl][Mn][Cl]", "note": "[MnCl2, reference compound]", "values": [{"measurement": "effect on cell attachment", "setting": "ZR-75-1 [1]", "result": "stimulates attachment"}, {"measurement": "percentage of cells that had reattached", "setting": "ZR-75-1 [1]", "result": "42.6 ± 12.0% and 67.3 ± 12.0% and 70.2 ± 1.4% and 77.8 ± 13.6%"}, {"measurement": "effect on cell attachment", "setting": "MCF-7 [2]", "result": "stimulates attachment"}, {"measurement": "percentage of cells that had reattached", "setting": "MCF-7 [2]", "result": "53.9 ± 12.3% and 69.4 ± 2.9% and 74.9 ± 3.6% and 81.5 ± 9.9%"}]}, {"smiles": "OB(O)O", "note": "[boric acid]", "values": [{"measurement": "growth inhibition", "setting": "MCF-7 [3]", "result": "not growth inhibited; also recorded: no growth inhibition; also recorded: much less sensitive"}, {"measurement": "growth inhibition", "setting": "PC-3", "result": "inhibits the growth"}, {"measurement": "growth inhibition", "setting": "PC-3; listed as BA", "result": "much less sensitive"}, {"measurement": "growth inhibition", "setting": "ZR-75-1 [4]; 1 mM", "result": "sensitive; also recorded: growth inhibition; also recorded: very sensitive"}, {"measurement": "time to resume normal growth rate after boric acid removal", "setting": "ZR-75-1 [4]; [11]", "result": "about three"}, {"measurement": "chronic intake with no adverse effects", "setting": "[5]", "result": 2.5, "unit": "mg/kg/day"}, {"measurement": "growth inhibition", "setting": "HeLa cells", "result": "very little inhibition"}, {"measurement": "change in cyclins A-E and MAPK proteins", "setting": "[6]", "result": "dose-dependent reduction"}, {"measurement": "adhesion, migration and invasion potential", "setting": "DU-145 cells", "result": "reduced"}, {"measurement": "effect on cell attachment", "setting": "ZR-75-1 [1]; ZR-75-1, 1 mM (Experiments 1, 2)", "result": "inhibit the attachment; also recorded: inhibited their reattachment"}, {"measurement": "effect on cell attachment", "setting": "ZR-75-1 [1]; ZR-75-1, 1 mM (Experiments 1, 2), listed as BA", "result": "did not"}, {"measurement": "percentage of cells that had reattached", "setting": "ZR-75-1 [1]; ZR-75-1, 30 min, 1 mM each compound", "result": "24.5 ± 5.2", "unit": "%"}, {"measurement": "percentage of cells that had reattached", "setting": "ZR-75-1 [1]; ZR-75-1, 60 min, 1 mM each compound", "result": "74.1 ± 26.1", "unit": "%"}, {"measurement": "percentage of cells that had reattached", "setting": "ZR-75-1 [1]; ZR-75-1, 90 min, 1 mM each compound", "result": "98.2 ± 34.0", "unit": "%"}, {"measurement": "percentage of cells that had reattached", "setting": "ZR-75-1 [1]; ZR-75-1, 120 min, 1 mM each compound", "result": "104.0 ± 16.1", "unit": "%"}, {"measurement": "effect on cell attachment", "setting": "MCF-7 [2]; MCF-7, 1 mM (Experiments 3, 4)", "result": "did not"}, {"measurement": "percentage of cells that had reattached", "setting": "MCF-7 [2]; MCF-7, 30 min, 1 mM each compound", "result": "53.5 ± 3.0", "unit": "%"}, {"measurement": "percentage of cells that had reattached", "setting": "MCF-7 [2]; MCF-7, 60 min, 1 mM each compound", "result": "92.6 ± 9.1", "unit": "%"}, {"measurement": "percentage of cells that had reattached", "setting": "MCF-7 [2]; MCF-7, 90 min, 1 mM each compound", "result": "105.7 ± 6.8", "unit": "%"}, {"measurement": "percentage of cells that had reattached", "setting": "MCF-7 [2]; MCF-7, 120 min, 1 mM each compound", "result": "97.5 ± 4.1", "unit": "%"}, {"measurement": "inhibition of LNCaP tumor growth", "setting": "LNCaP tumor", "result": "about 30%"}, {"measurement": "growth inhibition", "setting": "SK-BR-3; 1 mM", "result": "growth inhibition"}, {"measurement": "time to resume normal growth rate after boric acid removal", "setting": "SK-BR-3; [11]", "result": "about three"}, {"measurement": "fraction excreted in the urine", "setting": "[7]", "result": "about 85%"}, {"measurement": "half-life", "setting": "[7]", "result": "about 21 hrs"}, {"measurement": "time to excretion in the urine after ingestion", "setting": "[7]", "result": "≤ 24", "unit": "h"}, {"measurement": "cell detachment / floating cells", "setting": "ZR-75-1 [8]", "result": "causing breast cancer cells to detach and undergo apoptosis; also recorded: cells were seen floating in the media"}, {"measurement": "growth inhibition", "setting": "DU-145", "result": "inhibits the growth"}, {"measurement": "growth inhibition", "setting": "DU-145; listed as BA", "result": "sensitive"}, {"measurement": "growth inhibition", "setting": "[9]", "result": "not"}, {"measurement": "growth inhibition", "setting": "LNCaP", "result": "inhibits the growth"}, {"measurement": "growth inhibition", "setting": "LNCaP; listed as BA", "result": "much less sensitive"}]}, {"smiles": "[B]", "note": "[boron]", "values": [{"measurement": "Tolerable Upper Intake Level (UL)", "setting": "[10]", "result": 20, "unit": "mg/day"}]}]}
